The IC50 is the midpoint of a concentration-inhibition curve. In general, clearance refers to the volume of plasma or blood freed of the substance per unit of time.

Each structure is given as a SMILES string.

In one series the target is T1, EGFR (Homo sapiens, UniProt P00533).
T1 construct: Recombinant catalytic domain, amino acids 668-1210, GST tagged, purified from insect cells; GST; host or cells: insect cells
Nature of the series: Radiometric kinase assay, EGFR. Conditions: read-out: potency (IC50) over EGFR assay. The series is classed as biochemical. How it is done: (§1) Base Reaction buffer: 20 mM Hepes (pH 7.5), 10 mM MgCl2, 1 mM EGTA, 0.02% Brij35, 0.02 mg/ml BSA, 0.1 mM Na3VO4, 2 mM DTT, 1% DMSO. *Required cofactors are added individually to each kinase reaction
(§2) Prepare indicated substrate in freshly prepared Base Reaction Buffer • Deliver any required cofactors to the substrate solution above • Deliver indicated kinase into the substrate solution and gently mix • Deliver compounds in DMSO into the kinase reaction mixture • Deliver ^33P-ATP (specific activity 0.01 μCi/μl final) into the reaction mixture to initiate the reaction.
Activated in vitro via autophosphorylation. Final concentration in assay=4 nM. Substrate: pEY. Peptide sequence: Poly Glu-Tyr, 4:1 ratio. Final concentration in assay=0.2 mg·mL. 2 mM MnCl2 is added as a cofactor to the reaction mixture
(§3) Compounds in accordance with the practice of the present invention were tested in kinase assays employing high throughput radiometric techniques and nanoliter volume technology (Reaction Biology Corporation, Malvern Pa.).

The target of the next series is T2, ErbB2/HER2 (Homo sapiens, UniProt P04626).
T2 construct: Recombinant catalytic domain, amino acids 679-1255, GST tagged, purified from insect cells; GST; host or cells: insect cells
Nature of the series: Radiometric kinase assay, ErbB2/HER2. It is filed as biochemical. Conditions: read-out: potency (IC50) over Her-2 assay. How it is done: as §1, §2
ErbB2/HER2—Genbank Accession # X03363. […] Final concentration in assay=50 nM. Substrate: pEY. Peptide sequence: Poly Glu-Tyr, 4:1 ratio. Final concentration in assay=0.2 mg·mL. 2 mM MnCl2 is added as a cofactor to the reaction mixture
as §3

The next series has as its system A431. Nature of the series: Human tumor cell-line growth assay, A431. It is filed as cell-based. The note with it: A-431, A431 (overexpressing EGFR), 10-dose, 3-fold dilution starting at 10 μM, read-out: IC50 growth inhibition A431. How it is done:
(§4) Invention compounds were tested in human tumor cell-line growth assays.

The next series relates to NCI-H1975. Nature of the series: Human tumor cell-line growth assay, NCI-H1975. Conditions: NCI-H1975 (EGFR mutant L858R/T790M), 10-dose, 3-fold dilution starting at 10 μM, read-out: IC50 growth inhibition NCI-H1975. It is filed as cell-based. How it is done: as §4
The next series concerns NCI-H1650. Nature of the series: Human tumor cell-line growth assay, NCI-H1650. Conditions: NCI-H1650 (EGFR mutant E746-A750), 10-dose, 3-fold dilution starting at 10 μM, read-out: IC50 growth inhibition NCI-H1650. The series is classed as cell-based. How it is done: as §4
The next series deals with BT-474. The series is described as follows: Human tumor cell-line growth assay, BT-474. It is filed as cell-based. Conditions: BT-474 (overexpressing ErbB2), 10-dose, 3-fold dilution starting at 10 μM, read-out: IC50 growth inhibition BT-474. How it is done: as §4
A further series has as its system SKBR3. Nature of the series: Human tumor cell-line growth assay, SKBR3. The series is classed as cell-based. The note with it: SK-BR-3, SKBR3 (overexpressing EGFR and ErbB2), 10-dose, 3-fold dilution starting at 10 μM, read-out: IC50 growth inhibition SKBR3. How it is done: as §4
For another series, the system named is A549. Nature of the series: Human tumor cell-line growth assay, A549. The series is classed as cell-based. The note with it: 10-dose, 3-fold dilution starting at 10 μM, read-out: IC50 growth inhibition A549. How it is done:
as §4

Series [1] in a line: Pharmacokinetics after IV administration to Sprague-Dawley rats. The note with it: rat, in vivo; for clearance: read-out: mean Clearance (CL) (converted); for half-life: read-out: mean elimination half-life (T1/2) (converted).

T2 sequence (P04626 679-1255): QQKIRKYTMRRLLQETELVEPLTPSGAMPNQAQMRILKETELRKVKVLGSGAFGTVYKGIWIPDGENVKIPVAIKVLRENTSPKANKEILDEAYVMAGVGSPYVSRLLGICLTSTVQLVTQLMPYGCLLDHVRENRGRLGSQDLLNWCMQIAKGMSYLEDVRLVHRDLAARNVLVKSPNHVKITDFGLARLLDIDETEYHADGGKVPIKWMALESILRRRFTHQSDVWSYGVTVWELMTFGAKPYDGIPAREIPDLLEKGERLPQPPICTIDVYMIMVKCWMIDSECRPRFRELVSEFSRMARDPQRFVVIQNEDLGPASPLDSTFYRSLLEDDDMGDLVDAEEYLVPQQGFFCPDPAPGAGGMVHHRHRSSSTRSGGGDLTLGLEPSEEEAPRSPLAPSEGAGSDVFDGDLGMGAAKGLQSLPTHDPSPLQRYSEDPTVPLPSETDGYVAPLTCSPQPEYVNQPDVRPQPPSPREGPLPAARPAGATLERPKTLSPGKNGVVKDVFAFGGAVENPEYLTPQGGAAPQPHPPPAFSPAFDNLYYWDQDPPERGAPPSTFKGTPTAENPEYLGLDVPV
T1 sequence (P00533 668-1210): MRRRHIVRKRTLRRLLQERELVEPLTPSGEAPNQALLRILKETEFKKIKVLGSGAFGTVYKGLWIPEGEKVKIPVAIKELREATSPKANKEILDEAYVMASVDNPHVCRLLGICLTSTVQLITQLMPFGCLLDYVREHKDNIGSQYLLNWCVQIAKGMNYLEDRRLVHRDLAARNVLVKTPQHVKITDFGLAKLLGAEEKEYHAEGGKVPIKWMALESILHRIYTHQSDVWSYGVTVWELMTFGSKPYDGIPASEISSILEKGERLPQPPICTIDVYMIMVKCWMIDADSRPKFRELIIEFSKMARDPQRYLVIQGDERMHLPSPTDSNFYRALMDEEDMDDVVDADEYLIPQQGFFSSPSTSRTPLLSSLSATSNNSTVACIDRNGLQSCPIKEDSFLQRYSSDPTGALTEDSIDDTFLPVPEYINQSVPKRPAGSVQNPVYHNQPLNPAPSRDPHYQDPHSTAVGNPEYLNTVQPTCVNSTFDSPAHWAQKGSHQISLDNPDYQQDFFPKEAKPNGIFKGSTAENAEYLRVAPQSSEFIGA

Regarding `C#Cc1cccc(Nc2c(C#N)cnc3cc(OCC)c(NC(=O)/C=C/CN(C)C)cc23)c1` [Compound C, (E)-N-(3-cyano-7-ethoxy-4-(3-ethynylphenylamino)quinolin-6-yl)-4-(dimethylamino)but-2-enamide], the IC50 on EGFR was under 1 µM; at ErbB2/HER2 it was under 1 µM; with A431 it was under 1 µM; in the series on NCI-H1975, under 10 µM; in the series with NCI-H1650, under 10 µM; with BT-474 it was under 1 µM. In addition, the IC50 in the series with SKBR3 and in the series with A549 was under 1 µM in each case. In series [1], the clearance is 59.7 mL/min/kg. In series [1], the half-life is 5.37 h.

`[2H]C([2H])([2H])N(C/C=C/C(=O)Nc1cc2c(Nc3ccc(OCc4ccccn4)c(Cl)c3)c(C#N)cnc2cc1OCC)C([2H])([2H])[2H]` [Compound A, (E)-N-{4-[3-chloro-4-(2-pyridinylmethoxy)aniline]-3-cyano-7-ethoxy-6-quinolinyl}-4-(dimethyl-d6-amino)-2-butenamide]: the half-life in series [1] is 6.59 h.

Take `[2H]C([2H])([2H])N(C/C=C/C(=O)Nc1cc2c(Nc3ccc(OCc4ccccn4)c(Cl)c3)c(C#N)cnc2cc1OCCOC)C([2H])([2H])[2H]` [Example 7]: the concentration for half-maximal inhibition (IC50) at EGFR and on ErbB2/HER2 was under 1 µM in each case.

With `[2H]C([2H])([2H])N(C/C=C/C(=O)Nc1cc2c(Nc3cccc(C#C)c3)c(C#N)cnc2cc1OCC)C([2H])([2H])[2H]` [Compound B, (E)-N-(3-cyano-7-ethoxy-4-(3-ethynylphenylamino)quinolin-6-yl)-4-(dimethyl-d6-amino)but-2-enamide], the 50% inhibitory concentration (IC50) on EGFR and on ErbB2/HER2 was under 1 µM throughout. For the same molecule, the clearance in series [1] is 47.1 mL/min/kg. Moreover, in [1], the half-life is 8.76 h.

`CCOc1cc2ncc(C#N)c(Nc3ccc(OCc4ccccn4)c(Cl)c3)c2cc1NC(=O)/C=C/CN(C)C` [HKI272, reference compound]: the half-life in [1] is 5.28 h.

The values above are taken from patent US8748453B2, “Substituted heterocyclic compounds as kinases inhibitors and methods of use thereof” (Medolution Limited, priority 2009, dated 2014).
